Assay [1] addresses T1, human 5-hydroxytryptamine2C (h5HT2C) receptor (Homo sapiens, UniProt P28335).
T1 construct: expressed in transfected cells; host or cells: CHO (Chinese Hamster Ovary) cells; membrane preparation
T1 sequence (P28335 33-458): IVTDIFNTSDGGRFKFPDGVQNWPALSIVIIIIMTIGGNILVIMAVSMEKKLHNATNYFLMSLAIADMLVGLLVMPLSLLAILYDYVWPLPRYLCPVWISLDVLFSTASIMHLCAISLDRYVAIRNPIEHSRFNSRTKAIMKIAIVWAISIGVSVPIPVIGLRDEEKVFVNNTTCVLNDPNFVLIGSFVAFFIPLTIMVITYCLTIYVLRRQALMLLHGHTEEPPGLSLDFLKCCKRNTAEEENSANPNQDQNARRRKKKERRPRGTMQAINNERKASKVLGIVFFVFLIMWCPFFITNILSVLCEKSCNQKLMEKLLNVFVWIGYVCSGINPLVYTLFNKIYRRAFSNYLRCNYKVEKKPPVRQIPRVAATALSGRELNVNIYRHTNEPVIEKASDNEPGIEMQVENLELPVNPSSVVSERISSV
As to the kind of experiment: 5HT2C receptor binding ([125I]DOI displacement, CHO cell membranes).

Assay [2] concerns the target T2, human 5-HT2C receptor (Homo sapiens, UniProt P28335).
T2 sequence (P28335 33-458): T1 sequence (P28335 33-458)
As to the kind of experiment: Calcium mobilization in response to 5-HT2C receptor agonists (FLIPR, CHO cells). Type of assay: cell-based. The note with it: for Emax: CHO, read-out: 5-HT2C Function Emax (%) (5-HT, 100%); for EC50: calcium mobilization, CHO cells stably expressing human 5-HT2C, read-out: 5-HT2C Function EC50. A general note: Calcium flux is commonly read through the fluorescence of an indicator in the cells.

Usually Ki stands for a measure of affinity in units of concentration, obtained from inhibition or displacement. In general, Kd refers to a measure of binding affinity in units of concentration. By Emax is commonly meant the size of the effect at its maximum, as opposed to the concentration needed. The term EC50 denotes the midpoint of the concentration-response curve.

The structures appear in SMILES notation. Structures can show the parent of a compound that is named as a salt. Where two headings read alike, the source gives them in different places.

In assay [1], `Brc1cc2c3c(c1)C1CCCCCC1CN3CCNC2` (stereo not shown) [Example 16, 2-bromo-4,5,6,7,9,9a,10,11,12,13,14,14a-dodecahydrocyclohepta[c][1,4]diazepino[6,7,1-ij]quinoline hydrochloride] registered an inhibition constant Ki of 2300 nM.
For `Fc1ccc2c3c1C1CCCC1CN3CCNC2` (stereo not shown) [Example 26, 1-fluoro-4,5,6,7,9,9a,10,11,12,12a-decahydrocyclopenta[c][1,4]diazepino[6,7,1-ij]quinoline hydrochloride], affinity in assay [1] was put at a Ki of 20 nM.
Still for that read-out and setting: to `FC(F)(F)c1ccc2c3c1C1CCCC1CN3CCNC2` (stereo not shown) [Example 30, 1-(trifluoromethyl)-4,5,6,7,9,9a,10,11,12,12a-decahydrocyclopenta[c][1,4]diazepino[6,7,1-ij]quinoline hydrochloride] belongs 59 nM.
As for `COc1cc(CC(C)N)c(OC)cc1I` (stereo not shown) [[^125I]DOI, reference compound], the Kd in assay [1] (read-out: dissociation constant, KD of [125I]DOI at the human serotonin 5HT2C receptor, saturation binding with increasing concentrations of [125I]DOI) was found to be 0.4 nM.
Regarding `CSc1ccc2c(c1)C(N1CCN(C)CC1)Cc1ccccc1S2` (stereo not shown) [Methiothepin, reference compound], the Ki in assay [1] ([125I]DOI binding, CHO membranes expressing h5HT2C, 95% confidence interval in brackets, read-out: Ki (95% confidence interval), reference compounds) came out at 4.6 nM.
Turning to `COc1cc2c3c(c1F)C1CCCCCC1CN3CCNC2` (stereo not shown) [Example 34, 1-fluoro-2-methoxy-4,5,6,7,9,9a,10,11,12,13,14,14a-dodecahydrocyclohepta[c][1,4]diazepino[6,7,1-ij]quinoline hydrochloride], the Ki in assay [1] is 249 nM.
`c1ccc(-c2cc3c4c(c2)C2CCCC2CN4CCNC3)cc1` (stereo not shown) [Example 22, 2-phenyl-4,5,6,7,9,9a,10,11,12,12a-decahydrocyclopenta[c][1,4]diazepino[6,7,1-ij]quinoline hydrochloride] displayed a Ki in assay [1] of 88 nM.
With `c1cc2c3c(c1)[C@H]1CCCCC[C@H]1CN3CCNC2` [Example 10, (9aR,14aS)-4,5,6,7,9,9a10,11,12,13,14,14a-dodecahydrocyclohepta[c][1,4]diazepino[6,7,1-ij]quinoline hydrochloride], in assay [1], affinity was put at a Ki of 56 nM.
For `COc1cc2c3c(c1F)C1CCCC1CN3CCNC2` (stereo not shown) [Example 32, 1-fluoro-2-methoxy-4,5,6,7,9,9a,10,11,12,12a-decahydrocyclopenta[c][1,4]diazepino[6,7,1-ij]quinoline hydrochloride], in assay [1], the inhibitory constant (Ki) turned out to be 223 nM.
For the compound `c1cc2c3c(c1)C1CCCCCC1CN3CCNC2` (stereo not shown) [Example 8, 4,5,6,7,9,9a,10,11,12,13,14,14a-dodecahydrocyclohepta[c][1,4]diazepino[6,7,1-ij]quinoline], the affinity in assay [1], expressed as Ki, was 13 nM. In addition, in assay [2], the maximal effect (Emax) stood at 70% and the half-maximal effective concentration (EC50) worked out at 261 nM.
For `c1cc2c3c(c1)C1CCCCC1CN3CCNC2` (stereo not shown) [Example 6, 4,5,6,7,9a,10,11,12,13,13a-decahydro-9H-[1,4]diazepino[6,7,1-de]phenanthridine hydrochloride], in that order: 24 nM, 60% and 65 nM.
The compound `Clc1cc2c3c(c1)C1CCCCCC1CN3CCNC2` (stereo not shown) [Example 20, 2-chloro-4,5,6,7,9,9a,10,11,12,13,14,14a-dodecahydrocyclohepta[c][1,4]diazepino[6,7,1-ij]quinoline hydrochloride] showed a Ki in assay [1] of 373 nM.
Turning to `Fc1ccc2c3c1C1CCCCCC1CN3CCNC2` (stereo not shown) [Example 28, 1-fluoro-4,5,6,7,9,9a,10,11,12,13,14,14a-dodecahydrocyclohepta[c][1,4]diazepino[6,7,1-ij]quinoline hydrochloride], the Ki in assay [1] was determined as 169 nM.
`COc1cc2c3c(c1)C1CCCC1CN3CCNC2` (stereo not shown) [Example 24, 2-methoxy-4,5,6,7,9,9a,10,11,12,12a-decahydrocyclopenta[c][1,4]diazepino[6,7,1-ij]quinoline hydrochloride] showed a Ki in assay [1] of 199 nM.
Turning to `c1cc2c3c(c1)[C@@H]1CCCCC[C@@H]1CN3CCNC2` [Example 12, (9aS,14aR)-4,5,6,7,9,9a,10,11,12,13,14,14a-dodecahydrocyclohepta[c][1,4]diazepino[6,7,1-ij]quinoline hydrochloride], the Ki in assay [1] was 117 nM.
In assay [1], `c1cc2c3c(c1)C1CCCC1CN3CCNC2` (single isomer, unassigned; (-)) [Example 4, (−)-4,5,6,7,9,9a10,11,12,12a-decahydrocyclopenta[c][1,4]diazepino[6,7,1-ij]quinoline] yielded a Ki of 3 nM. In addition, in assay [2], the Emax was 100% and the half-maximal effective concentration (EC50) was determined as 8 nM.
